Each structure is given as a SMILES string. Values joined by “and” are separate entries in the source; they are usually repeats but may differ in a detail not shown here. Identical values can stand only once.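 How tested: cells in 96-well plates exposed to compound for 48 hours at five concentrations. GI50 marks 50% less growth. Definition used: TGI = concentration required for complete inhibition of growth.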 Bounds are passed on as bounds.

Here are results for 17 molecules from PubChem BioAssay (NCI).

The first assay has as its system OVCAR-4 ovarian. The assay can be described thus: DTP human tumour cell line panel, 48 h.
As for `N#C/C=C(\c1ccc([N+](=O)[O-])cc1)n1nnc2cc(Cl)c(Cl)cc21`, the GI50 is 1.54 µM and the TGI was determined as 2.89 µM.
On to `O=C(CC(O)(C(F)(F)F)C(F)(F)F)c1cc(CC(=O)C(O)(C(F)(F)F)C(F)(F)F)cc(CC(=O)C(O)(C(F)(F)F)C(F)(F)F)c1`, for which the total growth inhibition concentration (TGI) was > 10 µM.
Regarding `CCc1c(OC(C)=O)c2c(NC3OC(COC(C)=O)C(OC(C)=O)C(OC(C)=O)C3OC(C)=O)nc(OC)nc2oc1=O` (stereo not drawn), the TGI is > 100 µM.
On the same count and under the same terms, in the case of `O=c1c2ccccc2sc2cccc(NCCCN3CCN(CCCNc4cccc5sc6ccccc6c(=O)c45)CC3)c12` it was > 100 µM.
As for `CC1(C)OCCn2c1nc1c(N3CCOCC3)nc(-c3cnc(N)nc3)nc12`, the 50% growth inhibitory concentration (GI50) was 0.278 µM and the TGI came to 8.82 µM.
Turning to `O=C(c1c(F)ccc(NS(=O)(=O)N2CC[C@@H](F)C2)c1F)c1c[nH]c2ncc(-c3cnc(C4CC4)nc3)cc12`, the GI50 is 6.02 µM and 4.39 µM; the TGI is > 69.7 µM.
As for `COc1cc(-c2nn(-c3cccc(NC(=O)Nc4ccc(Cl)c(Cl)c4)c3)cc2-c2ccncc2)ccc1Cl`, the GI50 is 1.29 µM and the total growth inhibition concentration (TGI) is > 50 µM.
For `O=[N+]([O-])c1ccc(-n2nnc(C3=NCCN3)c2-c2ccc(Cl)cc2)cc1`, the TGI was > 100 µM.
`O=C(c1ccc(Cl)cc1)c1cnc(Nc2ccccc2Cl)s1`: the TGI turned out to be 98.2 µM.
With `Nc1nc(N)c(N=Nc2ccc([As](=O)(O)O)cc2)c(=O)[nH]1`, the TGI was > 100 µM.

Another assay deals with ACHN renal. The assay can be described thus: DTP human tumour cell line panel, 48 h.
With `COC12C=C/C(=C(/C(=O)OCc3ccncc3)C(=O)CCCCCCCCC3(OC)C=C/C(=C(/C(=O)OCc4ccncc4)C(=O)CCCCCCCC1)O3)O2`, the GI50 was 0.217 µM and the TGI stood at 1.14 µM.
As to `CCOC(=O)C(C)(C)Oc1ccc2c(C)c(-c3ccc(Cl)cc3)c(=O)oc2c1`, the concentration for total growth inhibition (TGI) is > 100 µM.
For `COc1cc(CNCCCN2C(=O)c3ccc4c5c(ccc(c35)C2=O)C(=O)N(CCCNCc2cc(OC)c(OC)c(OC)c2)C4=O)cc(OC)c1OC`, the GI50 is 0.841 µM and the concentration for total growth inhibition (TGI) is 3.17 µM.
As for `O=c1[nH]c(=O)n(C2CC(O)C(CO)O2)cc1CO` (stereo not drawn), the GI50 is > 100 µM and the TGI is > 100 µM.
Regarding `Cc1nc2cnc(N)c(C#Cc3cncc(C(=O)Nc4ccc(CN5CCN(C)CC5)c(C(F)(F)F)c4)c3)c2nc1C`, the GI50 is 0.564 µM and the TGI amounted to 5.9 µM.
On to `Cc1csc(Nc2nc(-c3cccc(Br)c3)nc(C(Cl)(Cl)Cl)n2)n1`, for which the GI50 is 0.475 µM and the TGI was 2.97 µM.
Take `CS(=O)(=O)CCCn1c(=O)c(Oc2ccc(F)cc2F)cc2cnc(NC3CCOCC3)nc21`: the GI50 was > 25 µM and the TGI was > 25 µM.
As to `N#C/C=C(\c1ccc([N+](=O)[O-])cc1)n1nnc2cc(Cl)c(Cl)cc21`, the GI50 was 1.63 µM and the concentration for total growth inhibition (TGI) was 3.16 µM.
Take `O=C(CC(O)(C(F)(F)F)C(F)(F)F)c1cc(CC(=O)C(O)(C(F)(F)F)C(F)(F)F)cc(CC(=O)C(O)(C(F)(F)F)C(F)(F)F)c1`: the concentration for total growth inhibition (TGI) is > 6.02 µM.
Regarding `CCc1c(OC(C)=O)c2c(NC3OC(COC(C)=O)C(OC(C)=O)C(OC(C)=O)C3OC(C)=O)nc(OC)nc2oc1=O` (stereo not drawn), the total growth inhibition concentration (TGI) was > 100 µM.
The same measure, in the same setting: in the case of `O=c1c2ccccc2sc2cccc(NCCCN3CCN(CCCNc4cccc5sc6ccccc6c(=O)c45)CC3)c12` it was > 100 µM.
With `CC1(C)OCCn2c1nc1c(N3CCOCC3)nc(-c3cnc(N)nc3)nc12`, the GI50 is 0.274 µM and the concentration for total growth inhibition (TGI) was > 100 µM.
Turning to `O=C(c1c(F)ccc(NS(=O)(=O)N2CC[C@@H](F)C2)c1F)c1c[nH]c2ncc(-c3cnc(C4CC4)nc3)cc12`, the GI50 was 4.91 µM and 4.34 µM; the TGI was > 65.9 µM.
For the molecule `COc1cc(-c2nn(-c3cccc(NC(=O)Nc4ccc(Cl)c(Cl)c4)c3)cc2-c2ccncc2)ccc1Cl`, the GI50 was 1 µM and the total growth inhibition concentration (TGI) is > 50 µM.
Regarding `O=[N+]([O-])c1ccc(-n2nnc(C3=NCCN3)c2-c2ccc(Cl)cc2)cc1`, the concentration for total growth inhibition (TGI) is > 100 µM.
Regarding `O=C(c1ccc(Cl)cc1)c1cnc(Nc2ccccc2Cl)s1`, the total growth inhibition concentration (TGI) amounted to 35.3 µM.
On to `Nc1nc(N)c(N=Nc2ccc([As](=O)(O)O)cc2)c(=O)[nH]1`, for which the TGI was > 100 µM.

The next assay has as its system HCT-116 colon. The assay can be described thus: DTP human tumour cell line panel, 48 h.
Take `COC12C=C/C(=C(/C(=O)OCc3ccncc3)C(=O)CCCCCCCCC3(OC)C=C/C(=C(/C(=O)OCc4ccncc4)C(=O)CCCCCCCC1)O3)O2`: the GI50 was 0.111 µM and the TGI worked out at 0.239 µM.
`CCOC(=O)C(C)(C)Oc1ccc2c(C)c(-c3ccc(Cl)cc3)c(=O)oc2c1`: the total growth inhibition concentration (TGI) was > 100 µM.
Regarding `COc1cc(CNCCCN2C(=O)c3ccc4c5c(ccc(c35)C2=O)C(=O)N(CCCNCc2cc(OC)c(OC)c(OC)c2)C4=O)cc(OC)c1OC`, the concentration for 50% growth inhibition (GI50) is 0.133 µM and the TGI turned out to be 0.41 µM.
As for `O=c1[nH]c(=O)n(C2CC(O)C(CO)O2)cc1CO` (stereo not drawn), the GI50 was > 100 µM and the TGI was > 100 µM.
For `Cc1nc2cnc(N)c(C#Cc3cncc(C(=O)Nc4ccc(CN5CCN(C)CC5)c(C(F)(F)F)c4)c3)c2nc1C`, the 50% growth inhibitory concentration (GI50) is 0.219 µM and the TGI is 1.57 µM.
For the molecule `Cc1csc(Nc2nc(-c3cccc(Br)c3)nc(C(Cl)(Cl)Cl)n2)n1`, the GI50 was 3.05 µM and the TGI was > 100 µM.
Consider `CS(=O)(=O)CCCn1c(=O)c(Oc2ccc(F)cc2F)cc2cnc(NC3CCOCC3)nc21`, for which the GI50 was > 25 µM and the TGI was > 25 µM.
Regarding `N#C/C=C(\c1ccc([N+](=O)[O-])cc1)n1nnc2cc(Cl)c(Cl)cc21`, the GI50 was 1.34 µM and the TGI was 2.7 µM.
`O=C(CC(O)(C(F)(F)F)C(F)(F)F)c1cc(CC(=O)C(O)(C(F)(F)F)C(F)(F)F)cc(CC(=O)C(O)(C(F)(F)F)C(F)(F)F)c1` gave a total growth inhibition concentration (TGI) of 2.56 µM.
For `CCc1c(OC(C)=O)c2c(NC3OC(COC(C)=O)C(OC(C)=O)C(OC(C)=O)C3OC(C)=O)nc(OC)nc2oc1=O` (stereo not drawn), the concentration for total growth inhibition (TGI) was > 100 µM.
Consider `O=c1c2ccccc2sc2cccc(NCCCN3CCN(CCCNc4cccc5sc6ccccc6c(=O)c45)CC3)c12`, for which the TGI is > 100 µM.
Turning to `CC1(C)OCCn2c1nc1c(N3CCOCC3)nc(-c3cnc(N)nc3)nc12`, the GI50 was 0.337 µM and the TGI is > 100 µM.
On to `O=C(c1c(F)ccc(NS(=O)(=O)N2CC[C@@H](F)C2)c1F)c1c[nH]c2ncc(-c3cnc(C4CC4)nc3)cc12`, for which the GI50 was 4.52 µM and 4.11 µM; the concentration for total growth inhibition (TGI) is > 10 µM and 41.8 µM.
`COc1cc(-c2nn(-c3cccc(NC(=O)Nc4ccc(Cl)c(Cl)c4)c3)cc2-c2ccncc2)ccc1Cl`: the GI50 was 1.21 µM and the total growth inhibition concentration (TGI) is > 50 µM.
On to `O=[N+]([O-])c1ccc(-n2nnc(C3=NCCN3)c2-c2ccc(Cl)cc2)cc1`, for which the TGI is > 100 µM.
Consider `O=C(c1ccc(Cl)cc1)c1cnc(Nc2ccccc2Cl)s1`, for which the TGI was 41.7 µM.
For the molecule `Nc1nc(N)c(N=Nc2ccc([As](=O)(O)O)cc2)c(=O)[nH]1`, the TGI is > 100 µM.

What is called GI50 is the concentration that inhibits growth by half. A word on the TGI: it is the concentration at which net growth stops. A low value points to more potent growth arrest.
